56 compounds from paper PMC12040169 (PLOS Biology, 2025) can be followed below.

This data set is described as follows: in vitro. The conditions noted are these: human, hela cells, % viability.

For the compound `c1ccc2c(CCN3CCC(Oc4nccnc4OC4CCCCC4)CC3)c[nH]c2c1` [CBK082877T], the viability (commonly a read-out of living cells in per cent, often relative to untreated cells) at 28.5 h, 10 µM is 86.2%.
To `c1cnc(OC2CCN(CC3CCCCC3)CC2)c(OC2CCCCC2)n1` [CBK082879T] belongs 101%; to `c1ccc(CN2CCN(c3nccnc3OCCN3CCOCC3)CC2)cc1` [CBK082885T], 104%; to `Fc1ccccc1CN1CCN(c2nccnc2OCCN2CCOCC2)CC1` [CBK082886T], 102%.
As for `O=[N+]([O-])c1ccc(CN2CCN(c3nccnc3OCCN3CCOCC3)CC2)cc1` [CBK082892T], the viability at 28.5 h, 10 µM was 99.8%.
For the compound `c1cnc(N2CCN(Cc3ccc4c(c3)OCO4)CC2)c(OCCN2CCOCC2)n1` [CBK082894T], the viability at 28.5 h, 10 µM is 87.8%.
Regarding `CCN(CC)c1ccc(C(=O)CN2CCN(c3nccnc3OCCN3CCOCC3)CC2)cc1` [CBK082898T], the viability at 28.5 h, 10 µM worked out at 97.4%.
Regarding `c1cnc(N2CCN(CC3CC3)CC2)c(OCCN2CCOCC2)n1` [CBK082909], the viability at 28.5 h, 10 µM came to 87.2%.
Regarding `c1cncc(OCCN2CCN(c3nccnc3OCCN3CCOCC3)CC2)c1` [CBK082914], the viability at 28.5 h, 10 µM was 107%.
Regarding `Clc1ccc(CN2CCC(Oc3nccnc3OCCN3CCOCC3)CC2)cc1` [CBK082918T], the viability at 28.5 h, 10 µM was determined as 92.5%.
On to `O=[N+]([O-])c1ccc(CN2CCC(Oc3nccnc3OCCN3CCOCC3)CC2)cc1` [CBK082923T], for which the viability at 28.5 h, 10 µM was 91%.
Take `c1cnc(OC2CCN(Cc3ccc4c(c3)OCO4)CC2)c(OCCN2CCOCC2)n1` [CBK082925T]: the viability at 28.5 h, 10 µM is 115%.
`CCN(CC)C(=O)CN1CCC(Oc2nccnc2OCCN2CCOCC2)CC1` [CBK082928]: the viability at 28.5 h, 10 µM was found to be 93.4%.
Consider `CCOC(=O)CN1CCC(Oc2nccnc2OCCN2CCOCC2)CC1` [CBK082929], for which the viability at 28.5 h, 10 µM was 103%.
For `CCN1CCC(Oc2nccnc2OCCN2CCOCC2)CC1` [CBK082931], the viability at 28.5 h, 10 µM was found to be 94.6%.
To `CSCCN1CCC(Oc2nccnc2OCCN2CCOCC2)CC1` [CBK082935] belongs 92.9%; to `c1ccc2c(CCN3CCC(Oc4nccnc4OCCN4CCOCC4)CC3)c[nH]c2c1` [CBK082939T], 88.6%; to `c1ccc2cc(CCN3CCC(Oc4nccnc4OCCN4CCOCC4)CC3)ccc2c1` [CBK082942T], 90.7%.
The result for `c1ccc(CCN2CCC(Oc3nccnc3OCCN3CCOCC3)CC2)nc1` [CBK082944] reads 96%; that for `Cc1cc(COc2nccnc2OC2CCN(Cc3ccc(Cl)cc3)CC2)no1` [CBK082949T], 85.7%; that for `Cc1cc(COc2nccnc2OC2CCN(CC(=O)Nc3c(C)cccc3C)CC2)no1` [CBK082958T], 103%.
In the case of `CCN1CCC(Oc2nccnc2OCc2cc(C)on2)CC1` [CBK082962T], the viability at 28.5 h, 10 µM came out at 94.7%.
To `O=[N+]([O-])c1ccc(CN2CCC(Oc3nccnc3OCC3COc4ccccc4O3)CC2)cc1` (centres unmarked) [CBK082984T] belongs 99.1%.
The result for `Fc1ccc(Oc2nccnc2N2CCN(Cc3cccnc3)CC2)cc1` [CBK083011] reads 87.5%; that for `Fc1ccc(Oc2nccnc2N2CCN(CCOc3cccnc3)CC2)cc1` [CBK083037T], 98.7%.
The result for `COc1ccc(Oc2nccnc2N2CCN(Cc3ccc(Cl)c(Cl)c3)CC2)cc1OC` [CBK083038T] reads 91.8%; that for `CCN(CC)C(=O)CN1CCN(c2nccnc2Oc2ccc(OC)c(OC)c2)CC1` [CBK083051T], 103%.
With `CCOC(=O)CN1CCN(c2nccnc2Oc2ccc(OC)c(OC)c2)CC1` [CBK083052T], the viability at 28.5 h, 10 µM was 103%.
To `COc1ccc(Oc2nccnc2N2CCN(CCCC#N)CC2)cc1OC` [CBK083056T] belongs 95.5%; to `COc1ccc(Oc2nccnc2N2CCN(CCOc3ccccc3)CC2)cc1OC` [CBK083061T], 86.3%.
To `O=[N+]([O-])c1ccc(CN2CCN(c3nccnc3OCc3ccc(Cl)c(Cl)c3)CC2)cc1` [CBK083076T] belongs 101%; to `CCN(CC)C(=O)CN1CCN(c2nccnc2OCc2ccc(Cl)c(Cl)c2)CC1` [CBK083081T], 101%.
To `Clc1ccc(COc2nccnc2N2CCN(CCOc3ccccc3)CC2)cc1Cl` [CBK083091T] belongs 95.2%; to `Clc1ccc(COc2nccnc2OC2CCN(Cc3ccc4c(c3)OCO4)CC2)cc1Cl` [CBK083109T], 86.6%; to `CCOC(=O)CN1CCC(Oc2nccnc2OCc2ccc(Cl)c(Cl)c2)CC1` [CBK083113T], 96.7%.
Consider `Clc1ccc(COc2nccnc2OC2CCN(CCOc3ccccc3)CC2)cc1Cl` [CBK083121T], for which the viability at 28.5 h, 10 µM came to 95.9%.
To `c1ccc(CN2CCN(c3nccnc3OCc3cccnc3)CC2)cc1` [CBK083129T] belongs 91.3%; to `O=[N+]([O-])c1ccc(CN2CCN(c3nccnc3OCc3cccnc3)CC2)cc1` [CBK083135T], 106%.
To `CCN1CCN(c2nccnc2OCc2cccnc2)CC1` [CBK083142] belongs 113%; to `CSCCN1CCN(c2nccnc2OCc2cccnc2)CC1` [CBK083146], 91%; to `FC(F)(F)c1ccc(CN2CCC(Oc3nccnc3OCc3cccnc3)CC2)cc1` [CBK083160T], 91.6%.
To `O=[N+]([O-])c1ccc(CN2CCC(Oc3nccnc3OCc3cccnc3)CC2)cc1` [CBK083162T] belongs 95.8%; to `NC(=O)CN1CCC(Oc2nccnc2OCc2cccnc2)CC1` [CBK083165], 107%.
For the compound `CSCCN1CCC(Oc2nccnc2OCc2cccnc2)CC1` [CBK083173], the viability at 28.5 h, 10 µM came to 90.3%.
The result for `c1ccc(CCN2CCC(Oc3nccnc3OCc3cccnc3)CC2)nc1` [CBK083180] reads 103%; that for `O=C(Nc1cccnc1)C1CCN(C(=O)OCc2ccccc2)CC1` [CBK083187], 90.6%; that for `CCC1CCCCN1C(=O)c1cccc(C(=O)OC)c1` (centres unmarked) [CBK083195], 109%.
To `CCC1CCCCN1C(=O)c1ccccc1OC` (centres unmarked) [CBK083205] belongs 99.4%.
To `COc1ccc(CN2CCCN(c3ccnc(OCC4COc5ccccc5O4)n3)CC2)cc1` (centres unmarked) [CBK083234T] belongs 96.8%; to `c1ccc2c(c1)OCC(COc1nccc(N3CCCN(Cc4ccc5c(c4)OCO5)CC3)n1)O2` (centres unmarked) [CBK083235T], 85.7%.
`CC(C)c1ccc(CN2CCCN(c3cc(OCCc4c[nH]c5ccccc45)ncn3)CC2)cc1` [CBK083280T]: the viability at 28.5 h, 10 µM worked out at 106%.
To `CCN(CC)C(=O)CN1CCCN(c2cc(OCc3cc(C)on3)ncn2)CC1` [CBK083337T] belongs 97%.
For `Clc1ccc(CN2CCCN(c3cc(OC4CCCCC4)ncn3)CC2)cc1Cl` [CBK083338T], the viability at 28.5 h, 10 µM amounted to 79.5%.
The result for `CCN(CC)C(=O)CN1CCCN(c2cc(Oc3ccc(OC)c(OC)c3)ncn2)CC1` [CBK083359T] reads 98.5%.
`N#CCCCN1CCCN(c2cc(OCC3COc4ccccc4O3)ncn2)CC1` (centres unmarked) [CBK083391T]: the viability at 28.5 h, 10 µM is 85.8%.
The result for `c1ccc(OCCN2CCCN(c3cc(OCC4COc5ccccc5O4)ncn3)CC2)cc1` (centres unmarked) [CBK083395T] reads 87.7%.
